Experiments:
[1] = target: T1, human liver FBPase (Homo sapiens, UniProt P09467); experiment: Inhibition of human liver FBPase; format: biochemical; settings: for inhibition of human liver FBPase activity (FIG. 2): result in words
T1 construct: made in house; host or cells: E. coli BL21
T1 sequence (P09467 2-338 limits assumed): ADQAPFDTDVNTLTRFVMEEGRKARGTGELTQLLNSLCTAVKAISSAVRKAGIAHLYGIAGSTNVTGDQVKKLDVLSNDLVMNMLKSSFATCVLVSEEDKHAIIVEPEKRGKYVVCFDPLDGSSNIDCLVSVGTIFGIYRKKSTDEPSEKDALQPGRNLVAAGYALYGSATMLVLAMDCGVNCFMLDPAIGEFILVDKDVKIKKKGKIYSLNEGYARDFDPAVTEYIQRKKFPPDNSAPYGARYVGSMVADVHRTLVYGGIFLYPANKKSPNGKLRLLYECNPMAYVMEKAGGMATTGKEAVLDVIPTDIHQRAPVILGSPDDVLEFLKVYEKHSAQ
Protocol: Enzymatic activity was measured spectrophotometrically in reactions that coupled the formation of product (fructose 6-phosphate) to the reduction of dimethylthiazoldiphenyltetrazolium bromide (MTT) via NADP and phenazine methosulfate (PMS), using phosphoglucose isomerase and glucose 6-phosphate dehydrogenase as the coupling enzymes. Reaction mixtures (200 μl) were made up in 96-well microtitre plates, and consisted of 50 mM Tris-HCl, pH 7.4, 100 mM KCl, 5 mM EGTA, 2 mM MgCl2, 0.2 mM NADP, 1 mg/ml BSA, 1 mM MTT, 0.6 mM PMS, 1 unit/mL phosphoglucose isomerase, 2 units/mL glucose 6-phosphate dehydrogenase, and 0.150 mM substrate (fructose 1,6-bisphosphate). Inhibitor concentrations were varied from 0.01 μM to 10 μM. Reactions were started by the addition of 0.002 units of pure hlFBPase and were monitored for 7 minutes at 590 nm in a Molecular Devices Plate Reader (37° C.).

[2] = target: T2, mouse liver FBPase (Mus musculus, UniProt Q9QXD6); experiment: Inhibition of mouse liver FBPase; format: biochemical; settings: partially purified mouse liver fraction
T2 construct: This partially purified fraction was used for enzyme assays; from tissue; host or cells: mouse liver, 45-75% ammonium sulfate fraction
T2 sequence (Q9QXD6 2-338 limits assumed): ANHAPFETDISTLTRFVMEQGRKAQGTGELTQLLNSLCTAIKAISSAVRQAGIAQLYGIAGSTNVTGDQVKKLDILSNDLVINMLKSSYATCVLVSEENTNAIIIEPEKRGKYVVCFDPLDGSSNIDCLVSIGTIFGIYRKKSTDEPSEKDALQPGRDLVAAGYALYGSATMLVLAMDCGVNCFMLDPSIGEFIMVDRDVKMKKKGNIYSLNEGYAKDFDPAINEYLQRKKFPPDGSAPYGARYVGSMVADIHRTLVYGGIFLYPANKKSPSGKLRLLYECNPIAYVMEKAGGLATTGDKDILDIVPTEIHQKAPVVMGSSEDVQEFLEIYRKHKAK
Protocol: Enzymatic activity was measured spectrophotometrically in reactions that coupled the formation of product (fructose 6-phosphate) to the reduction of dimethylthiazoldiphenyltetrazolium bromide (MTT) via NADP and phenazine methosulfate (PMS), using phosphoglucose isomerase and glucose 6-phosphate dehydrogenase as the coupling enzymes. Reaction mixtures (200 μl) were made up in 96-well microtitre plates, and consisted of 50 mM Tris-HCl, pH 7.4, 100 mM KCl, 5 mM EGTA, 2 mM MgCl2, 0.2 mM NADP, 1 mg/ml BSA, 1 mM MTT, 0.6 mM PMS, 1 unit/mL phosphoglucose isomerase, 2 units/mL glucose 6-phosphate dehydrogenase, and 0.150 mM substrate (fructose 1,6-bisphosphate). Inhibitor concentrations were varied from 0.01 μM to 10 μM.
Mouse liver FBPase was obtained by homogenizing freshly isolated mouse liver in 100 mM Tris-HCl buffer, pH 7.4, containing 1 mM EGTA, and 10% glycerol. […] This fraction was redissolved in the homogenization buffer and desalted on a PD-10 gel filtration column (Biorad) eluted with same. This partially purified fraction was used for enzyme assays. Both rat liver and mouse liver FBPase were assayed as described for human liver FBPase.

[3] = Estimation of the oral bioavailability of prodrugs of phosphonic acids; format: in vivo; settings: rat; for % Oral bioavailability: prodrug by oral gavage approximately 20 or 40 mg/kg parent equivalents, urinary recovery of parent vs i.v. parent
Protocol: Prodrugs were dissolved in 10% ethanol/90% polyethylene glycol (mw 400) and administered by oral gavage at doses of approximately 20 or 40 mg/kg parent compound equivalents to 6-hour fasted, Sprague Dawley rats (220-240 g). The rats were subsequently placed in metabolic cages and urine was collected for 24 hours. The quantity of parent compound excreted into urine was determined by HPLC analysis. An ODS column eluted with a gradient from potassium phosphate buffer, pH 5.5 to acetonitrile was employed for these measurements. Detection was at 310-325 nm. […] Parent compounds were typically dissolved in dimethyl sulfoxide, and administered via the tail vein in animals that were briefly anesthetized with halothane.

[4] = test system: rat hepatocytes; experiment: Inhibition of gluconeogenesis in rat hepatocytes; format: cell-based
Protocol: Hepatocytes were prepared from overnight fasted Sprague-Dawley rats (250-300 g) according to the procedure of Berry and Friend (Berry, M. N., Friend, D. S., 1969, J. Cell. Biol. 43, 506-520) as modified by Groen (Groen, A. K., Sips, H. J., Vervoorn, R. C., Tager, J. M., 1982, Eur. J. Biochem. 122, 87-93). Hepatocytes (75 mg wet weight/mL) were incubated in 1 ml Krebs-bicarbonate buffer containing 10 mM Lactate, 1 mM pyruvate, 1 mg/mL BSA, and test compound concentrations from 1 to 500 μM. Incubations were carried out in a 95% oxygen, 5% carbon dioxide atmosphere in closed, 50-mL Falcon tubes submerged in a rapidly shaking water bath (37° C.). After 1 hour, an aliquot (0.25 mL) was removed, transferred to an Eppendorf tube and centrifuged. 50 μL of supernatant was then assayed for glucose content using a Sigma Glucose Oxidase kit as per the manufacturer's instructions.

[5] = test system: fasted Sprague Dawley rats; experiment: Blood glucose lowering in fasted rats; format: in vivo, rat; settings: 20 mg/kg intraperitoneally, 18 hours fasted Sprague Dawley rats, one hour post injection
Protocol: Sprague Dawley rats (250-300 g) were fasted for 18 hours and then dosed intraperitoneally with 20 mg/kg of compounds 12.53, 12.61, or 12.64. The vehicle used for drug administration was 50 mM sodium bicarbonate. Blood samples were obtained from the tail vein of conscious animals just prior to injection and one hour post injection. Blood glucose was measured using a HemoCue Inc. glucose analyzer according to the instructions of the manufacturer.

[6] = target: T3, hlFBPase (Homo sapiens, UniProt P09467); experiment: AMP site binding (displacement of radiolabeled AMP)
T3 construct: made in house; host or cells: E. coli BL21
T3 sequence (P09467 2-338 limits assumed): T1 sequence (P09467 2-338 limits assumed)
Protocol: To determine whether compounds bind to the allosteric AMP binding site of hlFBPase, the enzyme was incubated with radiolabeled AMP in the presence of a range of test compound concentrations. The reaction mixtures consisted of […] ^3H-AMP (54 mCi/mmol) and […] test compound in 25 mM Tris-HCl, pH 7.4, 100 mM KCl and 1 mM MgCl2. 1.45 mg of homogeneous FBPase (±1 nmole) was added last. After a 1 minute incubation, AMP bound to FBPase was separated from unbound AMP by means of a centrifugal ultrafiltration unit (“Ultrafree-MC”, Millipore) used according to the instructions of the manufacturer. The radioactivity in aliquots (100 μL) of the upper compartment of the unit (the retentate, which contrains enzyme and label) and the lower compartment (the filtrate, which contains unbound label) were quantified using a Beckman liquid scintillation counter. The amount of AMP bound to the enzyme was estimated by comparing the counts in the filtrate (the unbound label) to the total counts in the retentate.

CCc1ccc2c(nc(-c3ccc(P(=O)(O)O)o3)n2CC(C)C)c1N [Compound 12.52, 4-Amino-5-ethyl-1-isobutyl-2-(2-phosphono-5-furanyl)benzimidazole]
inhibition of human liver FBPase activity (FIG. 2) [1]: inhibit human liver FBPase activity in vitro in a dose dependent manner | melting point: 220 to 225 °C | IC50 [2]: 0.78 µM

CC(=O)OCC1COP(=O)(c2ccc(-c3nc4ccc(Cl)cc4n3CC(C)C)o2)OC1 (stereo not shown) [Compound 31.14, 6-Chloro-1-isobutyl-2-{5-[2-(acetoxymethyl)-propan-1,3-yl]phosphono-2-furanyl}benzimidazole]
% Oral bioavailability [3]: 12.5%

CC(C)Cn1c(-c2ccc(P(=O)(O)O)o2)nc2c(N)c(F)ccc21 [Compound 12.53, 4-Amino-5-fluoro-1-isobutyl-2-(2-phosphono-5-furanyl)benzimidazole]
IC50 ([4]; Hepatocyte, glucose production from lactate/pyruvate, isolated rat hepatocytes, 1 hour): 2.4 µM | inhibition of glucose production in rat hepatocytes (FIG. 4) ([4]; result in words): inhibit glucose production in vitro in rat hepatocytes | inhibition of human liver FBPase activity (FIG. 2) [1]: inhibit human liver FBPase activity in vitro in a dose dependent manner | blood glucose lowering [5]: 55±14% | melting point: 230 to 235 °C

COC(=O)OCC1COP(=O)(c2ccc(-c3nc4ccc(Cl)cc4n3CC(C)C)o2)OC1 (stereo not shown) [Compound 31.15, 6-Chloro-1-isobutyl-2-{5-[2-(methoxycarbonyloxymethyl)-propan-1,3-yl]phosphono-2-furanyl}benzimidazole]
% Oral bioavailability [3]: 14.1%

4-Amino-5-fluoro-7-bromo-1-isobutyl-2-(1-methoxymethyl-3-bispivaloyloxymethylphosphonate)benzimidazole [Compound 18.7]
% Oral bioavailability [3]: 6.9%

CC(C)C(=O)OCOP(=O)(OCOC(=O)C(C)C)c1ccc(-c2nc3c(N)ncnc3n2CC(C)(C)C)o1 [Compound A]
oral bioavailability (calculated 6.2/76.8) ([3]; oral approximately 20 mg/kg): approximately 8% | % of oral dose recovered in urine ([3]; oral approximately 20 mg/kg, parent compound in 24 hour urine): 6.2%

NC(=O)c1ncn([C@@H]2O[C@H](COP(=O)(O)O)[C@@H](O)[C@H]2O)c1N [ZMP, 5-aminoimidazole-4-carboxamide riboside monophosphate, reference compound]
EC50 ([6]; displacement of 3H-AMP from hlFBPase, read-out: ED50 for AMP displacement): 250 µM | displacement of AMP from human liver FBPase (FIG. 3) ([6]; result in words): displaced AMP from human liver FBPase in a dose dependent manner | IC50 ([1]; values in text, read-out: hlFBPase IC50): 12 µM

Source: US6399782B1, “Benzimidazole inhibitors of fructose 1,6-bisphosphatase” (Metabasis Therapeutics, Inc., priority 1997, dated 2002)
